“And” between values parts separate entries of the source, which are not always exact repeats. Identical values can stand only once.
What was measured:
[1] = biological target: T1, PXR/NCOA1 (Homo sapiens, UniProt O75469); assay: Mammalian two-hybrid PXR/coactivator NCOA1 recruitment, HepG2; assay type: cell-based; design: key: firefly/Metridia luciferase activity ratio (normalized)
T1 construct: PXR-LBD (residues 108–434); expressed in transfected cells; host or cells: HepG2
T1 sequence (O75469 108-434): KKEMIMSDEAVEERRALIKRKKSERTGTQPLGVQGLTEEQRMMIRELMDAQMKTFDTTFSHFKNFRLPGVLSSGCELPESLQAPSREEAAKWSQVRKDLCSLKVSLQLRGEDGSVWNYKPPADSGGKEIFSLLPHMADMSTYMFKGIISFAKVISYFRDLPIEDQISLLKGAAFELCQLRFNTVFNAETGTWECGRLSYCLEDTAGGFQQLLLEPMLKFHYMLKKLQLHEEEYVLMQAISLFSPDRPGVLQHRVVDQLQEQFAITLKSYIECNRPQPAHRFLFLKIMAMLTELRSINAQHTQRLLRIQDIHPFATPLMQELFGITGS
Protocol: The GAL4-dependent pGL4-G5, harboring a pentamer of GAL4 binding sites in front of the E1b promoter was described before.
Transient batch transfection of HepG2 cells was done as described above. […] All transfections included 0.01 µg pMetLuc2control per well for normalization of firefly luciferase reporter activities. After overnight incubation with the transfection mixtures, cells were treated with chemicals in a volume of 100 µl of cell culture medium. […] Firefly luciferase activity was measured in 10 µl of cell lysates, and Metridia luciferase activity was analyzed in 10 µl of medium supernatant, both as described before. Results were normalized by dividing firefly luciferase activity by Metridia luciferase activity measured from the same well. Measurements of samples were repeated several times (n ≥ 3).

[2] = system: humanized PXR-CAR-CYP3A4/3A7 mice, plasma; assay: Plasma metabolomics (HFD study); assay type: in vivo, mouse
Protocol: Metabolomic plasma analysis was performed using plasma samples from male PXR/CAR/CYP3A4 mice (n=5) treated with MI-883 in the proof-of-concept study involving a high-fat diet^23. Plasma samples were prepared on ice, and each sample was separated into two 20 μl aliquots. All prepared aliquots were then frozen and stored at −80°C until analysis. Plasma aliquots were thawed, and protein precipitation was performed by adding 60 μl of a mixture containing 40% methanol, 40% acetonitrile, and 20% water. Samples were mixed, incubated for 12 hours at -20°C, and then centrifuged at 20,000 g for 10 minutes. The supernatants were collected for analysis by LC-MS/MS. A pooled quality control sample was prepared by mixing 10 μl from each sample. LC separation was performed on an iHILIC® Classic column (iHILIC®-(P) Classic, HILIC Column, PEEK,100x2.1mm, 5µm, 200Å, Hilicon, Umeå, Sweden) using a water/acetonitrile gradient with 10 mM ammonium formate, starting from 95% to 42% over 15 minutes in both polarities. LC-MS/MS analysis was conducted on the ID-X Orbitrap Tribrid Mass Spectrometer (ThermoFisher Scientific).

[3] = Metabolic stability in human liver S9 fraction
Protocol: Shimadzu HPLC system including vacuum degasser, gradient pumps, reverse phase HPLC column, column oven, and autosampler with an API 4000 QTRAP mass spectrometer (Applied Biosystems/MDS Sciex (AB Sciex) with Turbo V ion source and TurboIonspray interface were used. The reference compound midazolam, which is metabolized both by phase I and phase II enzymes, was used. The elimination constant (kel), half-life (t1/2), and intrinsic clearance (Clint) were determined[19] (Table S1).
Supplementary Figure 1. […] Test compounds (1 μM, final DMSO concentration 1%) were incubated at 37 °C with shaking at 100 rpm. Four time points over 120 minutes have been analyzed. The reactions were stopped by adding 420 μL of acetonitrile-water mixture (90:10). Supernatants were analyzed by the HPLC system coupled with a tandem mass spectrometer. The percentage (in % of initial concertation) of the test compounds remaining after incubation in plasma and their half-lives (t1/2) were calculated. […] The stability of the compound was tested in human liver S9 fraction. Cofactors were used such as UDPGA (for glucuronidation), PAPS (for sulfation), and reduced glutathione (for conjugation of GSH). Compounds were tested in triplicate with or without NADPH. Propantheline and midazolam were used as unstable control compounds in the experiments. Data represent the means±S.D. from at least three independent samples.

[4] = FigS18c, plasma, individual animals

NC(=O)c1cc(Cn2cc(-c3c(-c4ccc(Cl)cc4)nc4cc(F)ccn34)nn2)ccc1Cl [MI-883, 2-chloro-5-((4-(2-(4-chlorophenyl)-7-fluoroimidazo[1,2-a]pyridin-3-yl)-1H-1,2,3-triazol-1-yl)methyl)benzamide]
PXR/NCOA1 two-hybrid activity, replicates ([1]; MI-883 5 μM): 0.25 and 0.27 and 0.49 and 0.53 and 0.45
PXR/NCOA1 two-hybrid activity, replicates ([1]; RIF + MI-883 5μM): 3.5 and 5.72 and 7.6 and 8.87 and 7.06
PXR/NCOA1 two-hybrid activity, replicates ([1]; RIF + MI-883 10μM): 2.55 and 2.34 and 3.32 and 3.46
PXR/NCOA1 two-hybrid activity, replicates ([1]; single agent: RIF (10 µM), MI-883 10μM, control ~1): 0.21 and 0.23 and 0.57 and 0.43 and 0.38
Isoleucine (plasma metabolomic data) [2, 4]: 93.5 and 119.8 and 74.2 and 56.6 and 106.4 and 73.7
Leucine (plasma metabolomic data) [2, 4]: 53.5 and 73.3 and 34.8 and 24.3 and 49.7 and 38.6
Valine (plasma metabolomic data) [2, 4]: 2968.9 and 1967.5 and 1520.8 and 1183.5 and 1942.7 and 1962.8
plasma 2-hydroxy-3-oxopropanoate, change ([2]; HFD study, male mice): 1.595 fold
plasma 5-aminopentanoic acid (5-aminovalerate), change ([2]; HFD study, male mice): 1.375 fold
plasma isoleucine, change ([2]; HFD study, male mice): 1.638 fold
plasma small-molecule metabolome ([2]; HFD study, male mice): no significant effect
half-life at 2 µM ([3]; human, liver S9 fraction): 2.85 h
microsomal CLint at 2 µM ([3]; human, liver S9 fraction): 2 µL/min/mg
Stability in S9 fraction (human liver), % remaining ([3]; time 0 (min), 2 μM): 100
Stability in S9 fraction (human liver), % remaining ([3]; time 20): 100
Stability in S9 fraction (human liver), % remaining ([3]; time 40): 92
Stability in S9 fraction (human liver), % remaining ([3]; time 60): 96
Stability in S9 fraction (human liver), % remaining ([3]; time 120): 84
